# From US20250129050A1, “SYNTHESIS OF A KIF18A INHIBITOR” (Amgen Inc., priority 2022, published 2025)
# Entries after “also recorded” stand apart in the source; their conditions may differ.
# Assay: Dynamic Vapor Sorption (DVS) moisture sorption with pre and post DVS XRPD
# Type: physicochemical
# Conditions: after exposure to 80% relative humidity at 25° C. for 24 hours; hydrate
# Experimental: Moisture sorption data were collected using a DVS Endeavour. A sample size of about 30 mg was used. The temperature was 25° C. The relative humidity (RH) was held to 80% for 24 hours. Mass was recorded at the beginning and end of the experiment. Stability and Hygroscopicity Features of Crystalline Compound 6a-I as shown by Pre and Post DVS XRPD Experiment: Crystalline Compound 6a-I was exposed to 80% relative humidity at 25° C. for 24 hours using a DVS Endeavor instrument. The mass was recorded at the beginning and end of the exposure. […] Dynamic Vapor Sorption (DVS): The crystalline Compound 6a-I can be characterized by a DVS moisture sorption profile.
smiles,measurement,value
"O=S(CCOCc1ccccc1)[O][Ca][O]S(=O)CCOCc1ccccc1 (stereo not shown) [Compound 6a-I, calcium 2-(benzyloxy)ethane-1-sulfinate 4/3 hydrate]",crystalline form stability (XRPD pre DVS vs post DVS),no crystalline form change; also recorded: stable crystalline polymorph form
